Some test systems named below: A549; ACHN; HCC 2998; IGROV-1; K562; KM12; M14; NCI-H460; OVCAR-8; RPMI-8226; SF-295; SK-MEL-5; SK-OV-3; SN12C; SNB-19; SR; SW-620; T47D; UACC-62; UO-31.
Experiment in all cases: NCI anticancer screen, dose series, 48 h

Each structure is given as a SMILES string.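 Exposure lasted 48 hours, with cells grown in 96-well plates and compounds tested at five concentrations. GI50 is the concentration that inhibits growth by half.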 Active and inactive are the calls of the source. Cut-off read from the data, not from the text of the source: active = GI50 up to about 1.1 µM and inactive = higher.

On to `Nc1c(C(=O)O)nnc2cc(Cl)c(Cl)cc12`, for which the GI50 with A549, in the assay on ACHN, with HCC 2998, with IGROV-1, in the assay on K562 and in the assay with KM12 was > 100 µM (inactive) in each case. Besides, the GI50 with M14, in the assay on NCI-H460, in the assay with OVCAR-8, in the assay on RPMI-8226, with SF-295 and with SK-MEL-5 was > 100 µM (inactive) each time. Further, the GI50 in the assay with SK-OV-3, with SN12C, in the assay with SNB-19, with SR, with SW-620 and in the assay on T47D was > 100 µM (inactive) in each case. The GI50 was > 100 µM (inactive) with UACC-62 and 56.9 µM (inactive) in the assay with UO-31.
In the case of `CSC12c3cc(C)n(-c4ccc(I)cc4)c3CC(C)(C)CN1C(=O)C2Oc1ccccc1` (stereo unspecified), the GI50 with A549 is > 96.4 µM (inactive); in the assay on ACHN it was > 100 µM (inactive); with HCC 2998, > 100 µM (inactive); in the assay with IGROV-1, > 100 µM (inactive); in the assay on K562 it was > 87.1 µM (inactive); in the assay on KM12 it was > 100 µM (inactive). Further, the GI50 in the assay on M14 was > 100 µM (inactive); in the assay with NCI-H460, > 100 µM (inactive); with OVCAR-8, > 100 µM (inactive); in the assay on RPMI-8226, > 71.1 µM (inactive); in the assay with SF-295, > 100 µM (inactive); with SK-MEL-5 it was 97.5 µM (inactive). Moreover, the GI50 in the assay with SK-OV-3 was > 100 µM (inactive); in the assay with SN12C, > 100 µM (inactive); with SNB-19, > 100 µM (inactive); in the assay with SR it was > 91.2 µM (inactive); with SW-620, > 100 µM (inactive); in the assay on T47D, 5.97 µM (inactive). The GI50 in the assay with UACC-62 and in the assay on UO-31 was > 100 µM (inactive) each time.
As to `COc1ccc(OC)c2sc(N3C(=O)/C(=C/c4ccc(SC)cc4)N=C3c3ccccc3)nc12`, the GI50 in the assay with A549 was 22.2 µM (inactive); in the assay on ACHN, 28.9 µM (inactive); in the assay on HCC 2998, 71.4 µM (inactive); in the assay on IGROV-1, 23.3 µM (inactive); in the assay with K562 it was > 100 µM (inactive); in the assay with KM12 it was 20 µM (inactive). Moreover, the GI50 in the assay on M14 is 21.2 µM (inactive); in the assay with NCI-H460, 28.6 µM (inactive); in the assay on OVCAR-8, 27.7 µM (inactive); in the assay with RPMI-8226, 13.3 µM (inactive); in the assay on SF-295, 42 µM (inactive); in the assay on SK-MEL-5, 15.6 µM (inactive). The GI50 in the assay on SK-OV-3 is 30.5 µM (inactive); in the assay on SN12C, 24.9 µM (inactive); with SNB-19, 26.4 µM (inactive); in the assay with SR, 26.4 µM (inactive); with SW-620 it was 27.4 µM (inactive); in the assay with T47D, 26.3 µM (inactive). The GI50 was 31.5 µM (inactive) in the assay with UACC-62 and 24.2 µM (inactive) with UO-31.
As to `Oc1c(C2=NNC(c3cccs3)C2)ccc2ccccc12` (stereo unspecified), the GI50 is 25.3 µM (inactive) in the assay with A549; 27.7 µM (inactive) with ACHN; 14.8 µM (inactive) with HCC 2998; 14.5 µM (inactive) in the assay on IGROV-1; 17.9 µM (inactive) in the assay with K562; 12 µM (inactive) in the assay with KM12. Moreover, the GI50 with M14 was 14.4 µM (inactive); with NCI-H460 it was 14.8 µM (inactive); in the assay with OVCAR-8, 27.5 µM (inactive); in the assay on RPMI-8226 it was 17.7 µM (inactive); in the assay with SF-295, 18.2 µM (inactive); with SK-MEL-5, 23.2 µM (inactive). The GI50 in the assay on SK-OV-3 was 27.4 µM (inactive); with SN12C, 19.4 µM (inactive); with SR, 8.89 µM (inactive); in the assay with SW-620, 24.5 µM (inactive); in the assay on T47D, 4.42 µM (inactive); in the assay on UACC-62 it was 15.6 µM (inactive). In the assay with UO-31, the GI50 was 32.4 µM (inactive).
`CC(C)=CC1CC(C)C2(CCC3(C)CC4C(C(=O)CC4(C)O)/C(C=O)=C\CC32)O1` (stereo unspecified): the GI50 in the assay on A549 was 0.0685 µM (active); in the assay with ACHN, 0.0324 µM (active); in the assay with HCC 2998, 0.178 µM (active); in the assay on IGROV-1, 0.144 µM (active); in the assay on K562 it was 0.0614 µM (active); in the assay with KM12, 0.102 µM (active). Besides, the GI50 in the assay with M14 was 0.134 µM (active); with NCI-H460, 0.133 µM (active); in the assay on OVCAR-8 it was 0.0432 µM (active); in the assay on RPMI-8226, 0.0255 µM (active); with SF-295 it was 0.191 µM (active); in the assay with SK-MEL-5, 0.216 µM (active). The GI50 in the assay with SK-OV-3 was 0.148 µM (active); in the assay with SN12C it was 0.0638 µM (active); in the assay on SNB-19, 0.177 µM (active); in the assay on SR, 0.03 µM (active); with SW-620, 0.0205 µM (active); with T47D it was 0.0574 µM (active). The results for the GI50 in the assay on UACC-62 and in the assay with UO-31 were 0.169 µM (active) and 0.0355 µM (active), respectively.
Take `C=C(C)C1CCC2(C)C1CCC1(C)C2CCC2C3(C)C4OC(OC4=O)C(C)(C)C3CCC21C` (stereo unspecified): the GI50 is > 100 µM (inactive) in the assay with A549; > 100 µM (inactive) in the assay with ACHN; > 100 µM (inactive) in the assay on HCC 2998; > 100 µM (inactive) in the assay on IGROV-1; 33 µM (inactive) with K562; > 100 µM (inactive) in the assay with KM12. Further, the GI50 in the assay on M14, with NCI-H460, in the assay with OVCAR-8, in the assay on RPMI-8226, in the assay on SF-295 and with SK-MEL-5 was > 100 µM (inactive) throughout. Moreover, the GI50 was > 100 µM (inactive) with SK-OV-3; > 100 µM (inactive) in the assay on SN12C; > 100 µM (inactive) in the assay on SNB-19; > 100 µM (inactive) in the assay on SR; > 100 µM (inactive) in the assay with SW-620; 64.6 µM (inactive) in the assay on T47D. Besides, the GI50 in the assay with UACC-62 and with UO-31 was > 100 µM (inactive) each time.
For the molecule `COc1ccc(C2SCC(=O)N2c2ccc(-c3ccc(-n4c(-c5ccccc5)nc5ccccc5c4=O)cc3)cc2)cc1` (stereo unspecified), the GI50 in the assay with A549 was > 100 µM (inactive); in the assay with ACHN, 70 µM (inactive); with HCC 2998, 30.1 µM (inactive); with IGROV-1 it was 62.2 µM (inactive); with K562, 30.4 µM (inactive); in the assay on KM12 it was 21.1 µM (inactive). The GI50 in the assay with M14 was 85.7 µM (inactive); in the assay on NCI-H460, 34.4 µM (inactive); in the assay on OVCAR-8, 78.7 µM (inactive); in the assay with RPMI-8226, 21.6 µM (inactive); in the assay with SF-295, 47 µM (inactive); in the assay with SK-MEL-5, 26.9 µM (inactive). For the same molecule, the GI50 in the assay with SK-OV-3 was > 100 µM (inactive); in the assay with SN12C, > 100 µM (inactive); with SNB-19, > 100 µM (inactive); with SR, 19.5 µM (inactive); in the assay on SW-620, 94.4 µM (inactive); with T47D, 21 µM (inactive). The GI50 in the assay with UACC-62 is 33 µM (inactive); in the assay on UO-31, > 100 µM (inactive).
Turning to `C[C@@H](c1ccccc1)N1CN(C(=O)OCc2ccccc2)C(CO)C1=O` (stereo partly specified), the GI50 was > 100 µM (inactive) in the assay on A549; > 100 µM (inactive) with ACHN; > 100 µM (inactive) with HCC 2998; > 100 µM (inactive) with IGROV-1; 84.5 µM (inactive) with K562; > 100 µM (inactive) with KM12. The GI50 with M14 was > 100 µM (inactive); in the assay on NCI-H460, > 100 µM (inactive); in the assay on OVCAR-8, > 100 µM (inactive); in the assay on RPMI-8226, 93.1 µM (inactive); with SF-295, > 100 µM (inactive); with SK-MEL-5 it was > 100 µM (inactive). Besides, the GI50 with SK-OV-3, with SN12C, in the assay on SNB-19, in the assay on SR, in the assay on SW-620 and in the assay on T47D was > 100 µM (inactive) throughout. The GI50 in the assay with UACC-62 is > 100 µM (inactive).
Take `CCOC(=O)c1cc2c([nH]1)c(OC(C)=O)cc1c2ccn1Cc1ccccc1`: the GI50 in the assay with A549, with HCC 2998, in the assay on IGROV-1, with K562, in the assay on KM12 and with M14 was > 100 µM (inactive) in each case. Also, the GI50 in the assay with NCI-H460, in the assay with OVCAR-8, in the assay with RPMI-8226, in the assay with SF-295, in the assay with SK-MEL-5 and in the assay on SK-OV-3 was > 100 µM (inactive) each time. For the same molecule, the GI50 in the assay with SN12C, with SNB-19, in the assay on SR, in the assay on SW-620, in the assay on T47D and in the assay with UACC-62 was > 100 µM (inactive) throughout. Besides, in the assay with UO-31, the GI50 is > 100 µM (inactive).
With `N=C/N=C/C(=S)O[C@@H]1C(=O)N2CCC[C@@]23CCCC[C@@H]13`, the GI50 with A549, in the assay with ACHN, in the assay on HCC 2998, in the assay on IGROV-1, in the assay with K562 and with KM12 was > 12.5 µM (inactive) each time. For the same molecule, the GI50 in the assay on M14, with NCI-H460, with OVCAR-8, with RPMI-8226, in the assay on SF-295 and in the assay with SK-MEL-5 was > 12.5 µM (inactive) each time. In addition, the GI50 in the assay with SK-OV-3, with SN12C, with SNB-19, with SR, in the assay with T47D and with UACC-62 was > 12.5 µM (inactive) in each case. Also, in the assay on UO-31, the GI50 is > 12.5 µM (inactive).
